The values below come from patent publication US11542274B1, “Therapeutic compounds and methods of use thereof” (AGENCY FOR SCIENCE, TECHNOLOGY AND RESEARCH (A*STAR), priority 2019, dated 2023).

“Also recorded” adds a separate entry of the source.

In one assay the target is truncated CRBN (319-427) (Homo sapiens (Human), UniProt Q96SW2). The assay is described as follows: Fluorescence binding assay (fluorescence quenching), affinity to E3-CEREBLON (CRBN)-ubiquitin ligase. The note with it: ubiquitination moiety, pH 6.5. On the procedure:
Fluorescence quenching end point measurements were performed in black polystyrene 384-plates on Tecan Safire monochromator reader with the following settings: excitation 280 nm; excitation bandwidth 10.0 nm; emission collection 340 nm; emission bandwidth 20.0 nm; high sensitivity flash mode; integration time 40 μS; delay 0 μm. All measurements were done in duplicates; GraphPad Prism 5.03 was used for data evaluation, curve fitting, plotting and determination of IC50 values.
Serial dilutions of each tested ligands were mixed with truncated CRBN (319-427) to a final volume of 25 μL in the assay buffer (20 mM sodium phosphate buffer, pH 6.5, with 150 mM sodium chloride). The final concentration of CRBN in all assay will be 5-10 μM with DMSO level at 4%. A control lanes were prepared with only tested ligands without the addition of CRBN, top up with assay buffer to 25 μL. Plates were incubated for 5 minutes and analyzed using the monochromator plate reader.
IC50 is the compound concentration that causes 50% quenching of the desired activity.

In assay [1] the target is CRBN (truncated, residues 319-427) (Homo sapiens (Human), UniProt Q96SW2). Nature of the assay: NMR binding experiments (1H-15N HSQC titration). The settings on record: 15N-labeled CRBN, ligand to CRBN ratios 0, 0.5, 1.0 and 1.5, 25° C. On the procedure: All the NMR experiments were carried out on a Bruker magnet with proton frequency of 600 MHz or 700 MHz equipped with a cryo-probe. The experiments were performed at 25° C. The ^1H-^15N HSQC spectrum was collected using a standard pulse from the pulse library (Topspin version 2.1). To test whether a developed CRBN binder interacts with CRBN, titration of the compound to ^15N-labeled CRBN was carried out. The ^1H-^15N HSQC spectra of mixtures in which ligand to CRBN ratios are 0, 0.5, 1.0 and 1.5 were collected and compared. The data were collected using Topspin (ver 2.1) provided with equipment. The data were processed with topspin (ver 2.1), NMRPipe (Delaglio et al. 1995) and visualized using NMRView (Johnson 2004). The truncated CRBN: residues 319-427 was used in the NMR experiments.

Assay [2] has as its system RAMOS cells (Burkitt's lymphoma cell line). Nature of the assay: Anti-proliferation assay (CellTiter-Glo). The settings on record: 3 days. It counts as cell-based. A digest of the protocol:
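RAMOS cells (3000/well) exposed to compound for 3 days at 37 °C, 5% CO2. Viability read by CellTiter-Glo luminescence; GI50, concentration giving 50% of maximal proliferation inhibition, from nonlinear regression.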
In general terms: Cellular ATP, detected with luciferase, serves as a proxy for viable cell number.

A further assay has as its target BRD4 (Homo sapiens (Human), UniProt O60885). The assay is described as follows: Western blot analysis of BRD4 degradation in RAMOS cells. It counts as cell-based. On the procedure: Ramos (ATCC, CRL-1596) cells cultured in Roswell Park Memorial Institute (RPMI) 1640 Medium supplemented with 10% Fetal bovine serum and 1% Penicillin-streptomycin at 37° C. in humidified atmosphere with 5% CO2. In 6-well plate, 1.2 million cells were treated with indicated PROTAC compounds at 0.1% final concentration (v/v) of DMSO for desired duration of time. Pelleted cells were lysed in RIPA buffer (1% Nonidet P-40, 0.5% sodium deoxycholate, 0.1% SDS in 1× Tris-buffered saline) supplemented with protease inhibitor cocktail, 0.5 U/μL Benzonase (Novagen) and 1 mM MgCl2. Lysates were incubated on ice for 10 minutes followed by 15 minutes' centrifugation at 15000×g at 4° C. Supernatant was collected and subjected to Bradford protein quantification assay. Heat-denatured lysates (50 μg total protein) were loaded on NuPAGE 3-8% Tris-Acetate SDS protein gels. Proteins were transferred to PVDF membrane using iBlot 2 Dry Blotting Device (Thermo Fisher Scientific) at 20V for 13 minutes. Membranes were processed using iBind Flex Western Device (Thermo Fisher Scientific) by following the manufacturer's guideline. Membranes were probed with anti-BRD4 (Cell Signaling, Cat. #13440S), anti-c-Myc (Cell Signaling, Cat. #5605S), anti-β-actin (Proteintech, Cat. #66009-1-lg) antibodies, and developed with anti-Rabbit IgG, HRP-linked F(ab′)2 fragment (from donkey) (GE Life Sciences, Cat. #NA-9340) or anti-mouse IgG, AP-linked Antibody (Cell Signaling Technologies, Cat. #7056S) secondary antibodies. Membranes were incubated with Amersham ECL Select Western Blotting Detection Reagent (GE life sciences, Cat. #RPN2235) and Immun-Star™ AP Chemiluminescence Kits (Biorad, Cat. #1705018), visualized under FluorChem system (Protein Simple).
The protocol was run at 4 different inhibitor concentrations: 5 μM, 1 μM, 0.3 μM, 0.1 μM, using neat DMSO as the negative control. The % BRD4 degradation in western blot analysis is graded as follows: • K: Protein degradation >70% • L: 40%≤protein degradation<70% • M: protein degradation<40%

Chain of truncated CRBN (319-427) (Q96SW2 319-427): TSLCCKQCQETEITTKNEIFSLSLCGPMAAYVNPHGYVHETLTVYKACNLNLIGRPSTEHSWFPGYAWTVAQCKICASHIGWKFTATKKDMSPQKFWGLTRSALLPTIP
Chain of CRBN (truncated, residues 319-427) (Q96SW2 319-427): as above

Broadly, the IC50 is the concentration that gives 50% inhibition. A higher IC50 goes with weaker potency. Turning to `Nc1cc(-c2ccc3c(c2)NC(=O)C3)ccn1` [Compound 011, 6-(2-aminopyridin-4-yl)indolin-2-one], on truncated CRBN (319-427), the IC50 lay in the range of 100 to 300 µM. Also, the “binding to CRBN in HSQC titration experiments” value (shortened to “binding to CRBN”) in assay [1] is reported as “bind to protein CRBN; also recorded: clear binding”.

At truncated CRBN (319-427), `Nc1cnccc1-c1ccc2c(c1)NC(=O)C2` [Compound 012, 6-(3-aminopyridin-4-yl)indolin-2-one] registered an IC50 of over 300 µM. For the same compound, the “binding to CRBN” value in assay [1] was “bind to protein CRBN; also recorded: clear binding”.

`Nc1ccc(-c2ccc3c(c2)NC(=O)C3)cn1` [Compound 013, 6-(6-aminopyridin-3-yl)indolin-2-one] yielded an IC50 at truncated CRBN (319-427) of over 300 µM. Besides, in assay [1], the “binding to CRBN” value is recorded as “bind to protein CRBN; also recorded: clear binding”.

The compound `Nc1cc(-c2ccc3c(c2)CC(=O)N3)ccn1` [Compound 040, 5-(2-aminopyridin-4-yl)indolin-2-one] registered an IC50 on truncated CRBN (319-427) of 100 to 300 µM. In addition, the “binding to CRBN” value in assay [1] is on record as “bind to protein CRBN; also recorded: clear binding”.

Compound `Nc1ncccc1-c1ccc2c(c1)CC(=O)N2` [Compound 045, 5-(2-aminopyridin-3-yl)indolin-2-one] showed an IC50 at truncated CRBN (319-427) of 100 to 300 µM. Besides, the “binding to CRBN” value in assay [1] is given as “bind to protein CRBN; also recorded: clear binding”.

The GI50 is the concentration that inhibits growth by half. Read a low GI50 as more potent growth inhibition. `Cc1sc2c(c1C)C(c1ccc(Cl)cc1)=N[C@@H](CC(=O)Nc1ccc(OCCOCCNc3ncccc3-c3ccc4c(c3)CC(=O)N4)cc1)c1nnc(C)n1-2` [Compound 140, (S)-2-(4-(4-chlorophenyl)-2,3,9-trimethyl-6H-thieno[3,2-f][1,2,4]triazolo[4,3-a][1,4]diazepin-6-yl)-N-(4-(2-(2-((3-(2-oxoindolin-5-yl)pyridin-2-yl)amino)ethoxy)ethoxy)phenyl)acetamide] had a GI50 in assay [2] (Homo sapiens, 72 h) of 0.1 to 1 µM.

Take `Cc1cc(NCCOCCOCCOCCOc2ccc(NC(=O)C[C@@H]3N=C(c4ccc(Cl)cc4)c4c(sc(C)c4C)-n4c(C)nnc43)cc2)ncc1-c1ccc2c(c1)CC(=O)N2` [Compound 148, (S)-2-(4-(4-chlorophenyl)-2,3,9-trimethyl-6H-thieno[3,2-f][1,2,4]triazolo[4,3-a][1,4]diazepin-6-yl)-N-(4-(2-(2-(2-(2-((4-methyl-5-(2-oxoindolin-5-yl)pyridin-2-yl)amino)ethoxy)ethoxy)ethoxy)ethoxy)phenyl)acetamide]: the “% BRD4 degradation” value at BRD4 (0.1 μM) was “M (protein degradation<40%)”; at BRD4 (0.3 μM), “L (40%≤protein degradation<70%)”; on BRD4 (1 μM), “L (40%≤protein degradation<70%)”; at BRD4 (5 μM) it was “K (Protein degradation >70%)”.

`Cc1cc(NCCOCCOCCOCCOc2ccc(NC(=O)C[C@@H]3N=C(c4ccc(Cl)cc4)c4c(sc(C)c4C)-n4c(C)nnc43)cc2)ncc1-c1cnc2c(c1)CC(=O)N2` [Compound 156, (S)-2-(4-(4-chlorophenyl)-2,3,9-trimethyl-6H-thieno[3,2-f][1,2,4]triazolo[4,3-a][1,4]diazepin-6-yl)-N-(4-(2-(2-(2-(2-((4-methyl-5-(2-oxo-2,3-dihydro-1H-pyrrolo[2,3-b]pyridin-5-yl)pyridin-2-yl)amino)ethoxy)ethoxy)ethoxy)ethoxy)phenyl)acetamide]: the “% BRD4 degradation” value at BRD4 (0.1 μM) is on record as “M (protein degradation<40%)”; at BRD4 (0.3 μM) it was “M (protein degradation<40%)”; on BRD4 (1 μM), “L (40%≤protein degradation<70%)”; on BRD4 (5 μM) it was “K (Protein degradation >70%)”.

In the case of “(S)-2-(4-(4-chlorophenyl)-2,3,9-trimethyl-6H-thieno[3,2-f][1,2,4]triazolo[4,3-a][1,4]diazepin-6-yl)-N-(2-oxo-2-(4-(5-(2-oxoindolin-5-yl)pyridin-2-yl)piperazin-1-yl)ethyl)acetamide [Compound 122]”, the GI50 in assay [2] lay within 0.001 to 0.1 µM.
